Experimental data reported in patent US11479551B2, “MTA-cooperative PRMT5 inhibitors” (Mirati Therapeutics, Inc., priority 2019, dated 2022).
Read-outs that look alike come from different tables or passages of the source.

Molecular target: PRMT5/MEP50 complex (Homo sapiens (Human), UniProt O14744)
Assay: PRMT5:MEP50 FlashPlate Assay (histone H4 peptide substrate, plus and minus MTA)
Type: biochemical
Method: The PRMT5 inhibitory activity of compounds of the present invention was determined using either a PRMT5:MEP50 FlashPlate Assay (Reaction Biology Corporation) or a PRMT5:MEP50 HotSpot Assay (Reaction Biology Corporation).
1. PRMT5:MEP50 FlashPlate Assay

[1] = IC50 + 2 μM MTA (nM), in the presence of 2 μM MTA
[2] = in the absence of MTA, read-out: IC50

Chain of PRMT5/MEP50 complex (O14744 2-637): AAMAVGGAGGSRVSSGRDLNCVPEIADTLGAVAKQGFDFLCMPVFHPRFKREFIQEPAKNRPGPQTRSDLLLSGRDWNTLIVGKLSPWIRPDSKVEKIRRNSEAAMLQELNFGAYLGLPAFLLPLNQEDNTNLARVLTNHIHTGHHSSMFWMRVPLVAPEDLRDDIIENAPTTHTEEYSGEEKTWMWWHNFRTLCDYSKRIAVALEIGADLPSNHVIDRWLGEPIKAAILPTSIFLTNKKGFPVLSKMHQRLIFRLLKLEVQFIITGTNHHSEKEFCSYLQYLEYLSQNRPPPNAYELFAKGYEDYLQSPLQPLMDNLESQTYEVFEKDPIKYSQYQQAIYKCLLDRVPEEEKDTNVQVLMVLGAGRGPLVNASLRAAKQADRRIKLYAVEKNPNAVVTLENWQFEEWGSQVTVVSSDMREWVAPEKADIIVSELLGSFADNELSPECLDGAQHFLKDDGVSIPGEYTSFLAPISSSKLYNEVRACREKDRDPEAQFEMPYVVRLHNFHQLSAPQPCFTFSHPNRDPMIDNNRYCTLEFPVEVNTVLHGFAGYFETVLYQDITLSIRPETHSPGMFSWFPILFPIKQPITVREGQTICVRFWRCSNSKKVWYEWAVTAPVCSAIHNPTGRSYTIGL
Chain of PRMT5/MEP50 complex (Q9BQA1 2-342 partner): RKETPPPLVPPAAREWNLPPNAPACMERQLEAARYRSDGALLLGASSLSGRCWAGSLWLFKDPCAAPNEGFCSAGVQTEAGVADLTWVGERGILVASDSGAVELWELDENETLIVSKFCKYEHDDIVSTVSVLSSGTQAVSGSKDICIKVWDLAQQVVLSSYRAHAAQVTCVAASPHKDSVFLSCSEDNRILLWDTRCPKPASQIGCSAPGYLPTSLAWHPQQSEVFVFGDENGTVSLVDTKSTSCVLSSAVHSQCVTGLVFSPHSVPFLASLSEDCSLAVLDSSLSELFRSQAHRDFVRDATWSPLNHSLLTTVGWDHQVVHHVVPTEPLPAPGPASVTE

SMILES | IC50 [1] | IC50 [2]
Cc1c(Cl)cccc1Oc1cncc(-c2ccc3c(=O)[nH]nc(CN)c3c2)c1 [Example 4-75, 4-(aminomethyl)-6-(5-(3-chloro-2-methylphenoxy)pyridin-3-yl)phthalazin-1(2H)-one] | 0.7 nM | 33 nM
Cc1ccc(Oc2cncc(-c3ccc4c(=O)[nH]nc(CN)c4c3)c2)c(C)c1Cl [Example 4-76, 4-(aminomethyl)-6-(5-(3-chloro-2,4-dimethylphenoxy)pyridin-3-yl)phthalazin-1(2H)-one] | 1.3 nM | 31 nM
COc1ccc(Oc2cncc(-c3ccc4c(=O)[nH]nc(CN)c4c3)c2)cc1 [Example 4-77, 4-(aminomethyl)-6-(5-(4-methoxyphenoxy)pyridin-3-yl)phthalazin-1(2H)-one] | 1.1 nM | 96 nM
COc1ccccc1Oc1cncc(-c2ccc3c(=O)[nH]nc(CN)c3c2)c1 [Example 4-78, 4-(aminomethyl)-6-(5-(2-methoxyphenoxy)pyridin-3-yl)phthalazin-1(2H)-one] | 0.5 nM | 66 nM
NCc1n[nH]c(=O)c2ccc(-c3cnn4c3CN(Cc3ccccc3)CC4)cc12 [Example 4-79, 4-(aminomethyl)-6-(5-benzyl-4,5,6,7-tetrahydropyrazolo[1,5-a]pyrazin-3-yl)phthalazin-1(2H)-one] | 27 nM | 930 nM
CCN1CCn2ncc(-c3ccc4c(=O)[nH]nc(CN)c4c3)c2C1 [Example 4-80, 4-(aminomethyl)-6-(5-ethyl-4,5,6,7-tetrahydropyrazolo[1,5-a]pyrazin-3-yl)phthalazin-1(2H)-one] | 58 nM | 1570 nM
CC(C)N1CCn2ncc(-c3ccc4c(=O)[nH]nc(CN)c4c3)c2C1 [Example 4-81, 4-(aminomethyl)-6-(5-isopropyl-4,5,6,7-tetrahydropyrazolo[1,5-a]pyrazin-3-yl)phthalazin-1(2H)-one] | 18 nM | 826 nM
NCc1n[nH]c(=O)c2ccc(-c3cnn4c3CN(C3CC3)CC4)cc12 [Example 4-82, 4-(aminomethyl)-6-(5-cyclopropyl-4,5,6,7 tetrahydropyrazolo[1,5-a]pyrazin-3-yl)phthalazin-1(2H)-one] | 28 nM | 1340 nM
CC(=O)N1CCn2ncc(-c3ccc4c(=O)[nH]nc(CN)c4c3)c2C1 [Example 4-84, 6-(5-acetyl-4,5,6,7-tetrahydropyrazolo[1,5-a]pyrazin-3-yl)-4-(aminomethyl)phthalazin-1(2H)-one] | 93 nM | 4040 nM
NCc1n[nH]c(=O)c2ccc(-c3cnn4c3CN(C(=O)C3CC3)CC4)cc12 [Example 4-85, 4-(aminomethyl)-6-(5-(cyclopropanecarbonyl)-4,5,6,7-tetrahydropyrazolo[1,5-a]pyrazin-3-yl)phthalazin-1(2H)-one] | 29 nM | 1910 nM
NCc1n[nH]c(=O)c2ccc(-c3cnn4c3CN(C(=O)C3CCC3)CC4)cc12 [Example 4-86, 4-(aminomethyl)-6-(5-(cyclobutanecarbonyl)-4,5,6,7-tetrahydropyrazolo[1,5-a]pyrazin-3-yl)phthalazin-1(2H)-one] | 11 nM | 731 nM
NCc1n[nH]c(=O)c2ccc(-c3cnn4c3CN(C(=O)C3CCCC3)CC4)cc12 [Example 4-87, 4-(aminomethyl)-6-(5-(cyclopentanecarbonyl)-4,5,6,7-tetrahydropyrazolo[1,5-a]pyrazin-3-yl)phthalazin-1(2H)-one] | 22 nM | 1590 nM
NCc1n[nH]c(=O)c2ccc(-c3cnn4c3CN(C(=O)C3CCCCC3)CC4)cc12 [Example 4-88, 4-(aminomethyl)-6-(5-(cyclohexanecarbonyl)-4,5,6,7-tetrahydropyrazolo[1,5-a]pyrazin-3-yl)phthalazin-1(2H)-one] | 45 nM | 1710 nM
NCc1n[nH]c(=O)c2ccc(-c3cnn4c3CN(C(=O)C35CC(C3)C5)CC4)cc12 [Example 4-89, 4-(aminomethyl)-6-(5-(bicyclo[1.1.1]pentane-1-carbonyl)-4,5,6,7-tetrahydropyrazolo[1,5-a]pyrazin-3-yl)phthalazin-1(2H)-one] | 64 nM | 1220 nM
NCc1n[nH]c(=O)c2ccc(-c3cnn4c3CN(C(=O)c3ccccc3)CC4)cc12 [Example 4-90, 4-(aminomethyl)-6-(5-benzoyl-4,5,6,7-tetrahydropyrazolo[1,5-a]pyrazin-3-yl)phthalazin-1(2H)-one] | 82 nM | 2730 nM
Cn1ncc(-c2ccc3c(=O)[nH]nc(CN)c3c2)c1-c1cccc(F)c1 [Example 4-91, 4-(aminomethyl)-6-(5-(3-fluorophenyl)-1-methyl-1H-pyrazol-4-yl)phthalazin-1(2H)-one] | 16 nM | 249 nM
Cn1ncc(-c2ccc3c(=O)[nH]nc(CN)c3c2)c1-c1cccc(Cl)c1 [Example 4-92, 4-(aminomethyl)-6-(5-(3-chlorophenyl)-1-methyl-1H-pyrazol-4-yl)phthalazin-1(2H)-one] | 3.5 nM | 137 nM
Cn1ncc(-c2ccc3c(=O)[nH]nc(CN)c3c2)c1-c1ccc(F)cc1 [Example 4-95, 4-(aminomethyl)-6-(5-(4-fluorophenyl)-1-methyl-1H-pyrazol-4-yl)phthalazin-1(2H)-one] | 4.9 nM | 228 nM
Cc1ccc(-c2c(-c3ccc4c(=O)[nH]nc(CN)c4c3)cnn2C)cc1 [Example 4-97, 4-(aminomethyl)-6-(1-methyl-5-(p-tolyl)-1H-pyrazol-4-yl)phthalazin-1(2H)-one] | 1.6 nM | 49 nM
Cc1ccc(-c2c(-c3ccc4c(=O)[nH]nc(CN)c4c3)cnn2C)cn1 [Example 4-99, 4-(aminomethyl)-6-(1-methyl-5-(6-methylpyridin-3-yl)-1H-pyrazol-4-yl)phthalazin-1(2H)-one] | 15 nM | 547 nM
NCc1n[nH]c(=O)c2ccc(-c3cncn3Cc3ccccc3)cc12 [Example 4-108, 4-(aminomethyl)-6-(1-benzyl-1H-imidazol-5-yl)phthalazin-1(2H)-one] | 900 nM | 8650 nM
Cc1ncc(-c2ccc3c(=O)[nH]nc(CN)c3c2)n1CC#N [Example 4-109, 2-(5-(4-(aminomethyl)-1-oxo-1,2-dihydrophthalazin-6-yl)-2-methyl-1H-imidazol-1-yl)acetonitrile] | 120 nM | 4870 nM
Cc1nc2cncc(-c3ccc4c(=O)[nH]nc(CN)c4c3)c2o1 [Example 4-110, 4-(aminomethyl)-6-(2-methyloxazolo[4,5-c]pyridin-7-yl)phthalazin-1(2H)-one] | 1000 nM | 
NCc1n[nH]c(=O)c2ccc(-c3cncc([S+]([O-])c4ccccc4)c3)cc12 (centres unmarked) [Example 4-111, 4-(aminomethyl)-6-(5-(phenylsulfinyl)pyridin-3-yl)phthalazin-1(2H)-one] | 12 nM | 472 nM

Now from value to compound:

IC50 [1] | IC50 [2] | SMILES
72000 nM | > 100000 nM | NCc1n[nH]c(=O)c2ccc(C3CCCC3)cc12 [Example 5-1, 4-(aminomethyl)-6-cyclopentylphthalazin-1(2H)-one]
5800 nM | > 100000 nM | NCc1n[nH]c(=O)c2ccc(-n3ccnc3)cc12 [Example 6-1, 4-(aminomethyl)-6-imidazol-1-yl-2H-phthalazin-1-one]
> 100000 nM | > 100000 nM | CCCNc1ccc2c(CN)n[nH]c(=O)c2c1 [Example 6-2]
9400 nM | > 100000 nM | NCc1n[nH]c(=O)c2cc(Nc3ccccc3)ccc12 [Example 6-3, 4-(aminomethyl)-7-anilino-2H-phthalazin-1-one]
19000 nM |  | NCc1n[nH]c(=O)c2cc(NCc3ccccc3)ccc12 [Example 6-4, 4-(aminomethyl)-7-(benzylamino)-2H-phthalazin-1-one]
> 100000 nM | > 100000 nM | NCc1n[nH]c(=O)c2ccc(N3CCOCC3)cc12 [Example 6-5, 4-(aminomethyl)-6-morpholino-2H-phthalazin-1-one]
490 nM | 11200 nM | NCc1n[nH]c(=O)c2ccc(-c3cncc(Oc4ccncc4)c3)cc12 [Example 7-1, 4-(aminomethyl)-6-(5-(pyridin-4-yloxy)pyridin-3-yl)phthalazin-1(2H)-one]
16 nM | 246 nM | N#Cc1ccccc1Oc1cncc(-c2ccc3c(=O)[nH]nc(CN)c3c2)c1 [Example 7-2, 2-((5-(4-(aminomethyl)-1-oxo-1,2-dihydrophthalazin-6-yl)pyridin-3-yl)oxy)benzonitrile]
15 nM | 388 nM | NCc1n[nH]c(=O)c2ccc(-c3cncc(Oc4ccc(F)cc4)c3)cc12 [Example 7-3, 4-(aminomethyl)-6-(5-(4-fluorophenoxy)pyridin-3-yl)phthalazin-1(2H)-one]
5.6 nM | 151 nM | NCc1n[nH]c(=O)c2ccc(-c3cncc(Oc4ccc(Cl)cc4)c3)cc12 [Example 7-4, 4-(aminomethyl)-6-(5-(4-chlorophenoxy)pyridin-3-yl)phthalazin-1(2H)-one]
2 nM | 64 nM | Cc1ccc(Oc2cncc(-c3ccc4c(=O)[nH]nc(CN)c4c3)c2)cc1 [Example 7-5, 4-(aminomethyl)-6-(5-(p-tolyloxy)pyridin-3-yl)phthalazin-1(2H)-one]
18 nM | 577 nM | N#Cc1ccc(Oc2cncc(-c3ccc4c(=O)[nH]nc(CN)c4c3)c2)cc1 [Example 7-6, 4-((5-(4-(aminomethyl)-1-oxo-1,2-dihydrophthalazin-6-yl)pyridin-3-yl)oxy)benzonitrile]
47 nM | 1650 nM | N#Cc1ccc(F)cc1-c1cncc(-c2ccc3c(=O)[nH]nc(CN)c3c2)c1 [Example 8-1, 2-(5-(4-(aminomethyl)-1-oxo-1,2-dihydrophthalazin-6-yl)pyridin-3-yl)-4-fluorobenzonitrile]
36 nM | 3150 nM | N#Cc1ccc(-c2cncc(-c3ccc4c(=O)[nH]nc(CN)c4c3)c2)c(C#N)c1 [Example 8-2, 4-(5-(4-(aminomethyl)-1-oxo-1,2-dihydrophthalazin-6-yl)pyridin-3-yl)isophthalonitrile]
